Measured values as given in the supplement of paper PMC10331698.
± gives the standard deviation of the averaged measurements.

Key:
Assay in all cases: level (log10 ratio to DMSO vehicle control); higher = higher biomarker level / cell amount than vehicle control
[1] = compound: OCC(F)(F)C(F)(F)C(F)(F)C(F)(F)C(F)(F)C(F)(F)CO [1H,1H,8H,8H-Perfluorooctane-1,8-diol] (in DMSO)
Description: (§1)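 BioMAP Diversity Plus panel of 12 human primary cell co-culture systems (3C, 4H, LPS, SAg, BT, BF4T, BE3C, CASM3C, HDF3CGF, KF3CT, MyoF, Mphg). Compounds were added 1 h before stimulation and left for 24 h (MyoF 48 h; BT 72 h for soluble read-outs or 6 d for IgG). Biomarkers were read by ELISA, cytotoxicity by SRB, PBMC viability and proliferation by Alamar Blue. Each well value was divided by the mean of 8 DMSO control wells on the same plate and log10 transformed; duplicate blinded samples were tested at 4 concentrations.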

[2] = compound: CCOC(=O)CC(=O)C(F)(F)C(F)(F)F [Ethyl pentafluoropropionyl acetate] (in DMSO)
Description: as §1

Perfluoroundecanoic acid = compound: O=C(O)C(F)(F)C(F)(F)C(F)(F)C(F)(F)C(F)(F)C(F)(F)C(F)(F)C(F)(F)C(F)(F)C(F)(F)F [Perfluoroundecanoic acid] (in DMSO); settings: 6700 nM
Description: as §1

[3] = compound: O=S(=O)(O)CCC(F)(F)C(F)(F)C(F)(F)C(F)(F)C(F)(F)C(F)(F)C(F)(F)C(F)(F)F [8:2 Fluorotelomer sulfonic acid] (in DMSO)
Description: as §1

[4] = compound: OCC(F)(F)OC(F)(F)C(F)(F)OC(F)(F)C(F)(F)OC(F)(F)CO [1H,1H,11H,11H-Perfluorotetraethylene glycol] (in DMSO)
Description: as §1

Perfluorononanoic acid = compound: O=C(O)C(F)(F)C(F)(F)C(F)(F)C(F)(F)C(F)(F)C(F)(F)C(F)(F)C(F)(F)F [Perfluorononanoic acid] (in DMSO)
Description: as §1

[5] = compound: CO[Si](C)(CCC(F)(F)C(F)(F)C(F)(F)C(F)(F)C(F)(F)C(F)(F)F)OC [Dimethoxymethyl((perfluorohexyl)ethyl)silane] (in DMSO)
Description: as §1

[6] = compound: O=C(O)CCC(F)(C(F)(F)F)C(F)(F)F [4,4-bis(Trifluoromethyl)-4-fluoropropanoic acid] (in DMSO)
Description: as §1

Test System	level (log10) ([1]; 6700 nM)	level (log10) ([1]; 20000 nM)	level (log10) ([1]; 60000 nM)	level (log10) ([2]; 6700 nM)	level (log10) ([2]; 20000 nM)	level (log10) ([2]; 60000 nM)	level (log10) (Perfluoroundecanoic acid)	level (log10) ([3]; 6700 nM)	level (log10) ([3]; 20000 nM)	level (log10) ([3]; 60000 nM)	level (log10) ([4]; 6700 nM)	level (log10) ([4]; 20000 nM)	level (log10) ([4]; 60000 nM)	level (log10) (Perfluorononanoic acid; 6700 nM)	level (log10) (Perfluorononanoic acid; 20000 nM)	level (log10) ([5]; 6700 nM)	level (log10) ([5]; 20000 nM)	level (log10) ([6]; 6700 nM)	level (log10) ([6]; 20000 nM)	level (log10) ([6]; 60000 nM)
BF4T:IL-1alpha	-0.0105 ± 0.011	-0.0135 ± 0.013	0.0145 ± 0.029	0.017 ± 0.021	0.0035 ± 0.018	0.0315 ± 0.0035	-0.014 ± 0.023	0.004 ± 0.016	-0.01 ± 0.014	0.0065 ± 0.018	0.0095 ± 0.012	-0.002 ± 0.025	0.003 ± 0.051	-0.043 ± 0.0099	-0.029 ± 0.025	-0.0245 ± 0.0078	0.014 ± 0.035	-0.0005 ± 0.0092	-0.0135 ± 0.019	0.003 ± 0.031
BF4T:Keratin 8/18	-0.0005 ± 0.0021	0.021 ± 0.0014	-0.003 ± 0.0042	0.0085 ± 0.005	0.0275 ± 0.052	0.002 ± 0.016	0 ± 0.014	0.004 ± 0.0099	-0.0005 ± 0.018	0.0245 ± 0.0078	-0.0025 ± 0.012	-0.005 ± 0.0057	-0.0335 ± 0.015	-0.0155 ± 0.016	0.0075 ± 0.023	0.029 ± 0.034	0.006 ± 0.016	-0.0015 ± 0.0064	-0.032 ± 0.051	-0.0015 ± 0.03
BF4T:MMP-1	-0.0055 ± 0.0064	-0.0135 ± 0.022	0.019 ± 0.03	-0.0045 ± 0.03	-0.0005 ± 0.018	0.0155 ± 0.0035	-0.0045 ± 0.005	0.005 ± 0.0085	-0.002 ± 0.0071	0.0035 ± 0.0021	-0.0025 ± 0.016	0.0005 ± 0.018	0.0065 ± 0.046	-0.012 ± 0.028	0.0095 ± 0.016	-0.01 ± 0.054	0.0085 ± 0.023	-0.0025 ± 0.012	-0.0015 ± 0.00071	-0.004 ± 0.013
BF4T:MMP-3	-0.013 ± 0.0042	0.018 ± 0.013	-0.0095 ± 0.0021	0.0105 ± 0.029	-0.012 ± 0.047	-0.0025 ± 0.052	-0.002 ± 0.038	-0.0095 ± 0.043	0.027 ± 0.034	0.0755 ± 0.0078	0.0035 ± 0.016	0.012 ± 0.0028	-0.011 ± 0.013	0.0005 ± 0.035	0.015 ± 0.0071	0.0005 ± 0.0035	-0.015 ± 0.0099	0.0295 ± 0.022	0.0285 ± 0.00071	0.031 ± 0.052
BF4T:MMP-9	-0.019 ± 0.03	-0.008 ± 0.011	0.0075 ± 0.0092	0.002 ± 0.038	-0.007 ± 0.044	-0.007 ± 0.044	-0.056 ± 0.04	0.0065 ± 0.015	-0.003 ± 0.0014	-0.0215 ± 0.005	-0.007 ± 0.013	-0.004 ± 0.013	-0.0405 ± 0.033	-0.034 ± 0.038	-0.032 ± 0.0042	-0.0065 ± 0.037	-0.001 ± 0.017	0.0265 ± 0.042	0.0145 ± 0.022	0.015 ± 0.042
BF4T:PAI-I	0.018 ± 0.013	0 ± 0.0099	-0.0065 ± 0.011	0.0015 ± 0.011	0.004 ± 0.011	-0.0025 ± 0.011	0.007 ± 0.0085	0.005 ± 0.0099	0.002 ± 0.011	0.009 ± 0.0042	-0.0035 ± 0.0092	-0.0335 ± 0.00071	-0.069 ± 0.016	-0.0145 ± 0.03	-0.007 ± 0.028	-0.008 ± 0.013	-0.0145 ± 0.0021	-0.002 ± 0.014	-0.01 ± 0.013	0.008 ± 0.011
BF4T:SRB	-0.002 ± 0.0042	-0.0005 ± 0.0035	-0.007 ± 0.0071	-0.004	-0.0045 ± 0.0035	-0.002 ± 0.0057	-0.0115 ± 0.0035	0.0035 ± 0.015	-0.002 ± 0.013	-0.0005 ± 0.0078	-0.0035 ± 0.0021	-0.0065 ± 0.0021	-0.0345 ± 0.033	-0.002 ± 0.0014	-0.028 ± 0.0014	-0.0055 ± 0.005	-0.0045 ± 0.005	0.0065 ± 0.015	0.0015 ± 0.021	0.02 ± 0.014
